Test results published in patent US20060235078A1, “Insulin secretion potentiator” (Use-Techno Corporation, priority 2003, published 2006).

How the values were obtained:
KK-Ay mice = test: blood glucose level in KK-Ay mice (genetic type II diabetes model) after oral administration; type: in vivo; conditions: 10 mg/kg oral, blood sampled before and at 4 and 7 hours after administration (tormentic acid: before and 4 hours), n=4, p 0.05
Procedure: KK-Ay mice (CLEA Japan, Inc.), a genetic type II diabetes model, were used as the test animals. […] The animal feeding conditions were at constant temperature (22±2° C.) throughout the test period, and the light-dark period was 12 hours (light period: 9:00 am-9:00 pm). The feed (CE-2, CLEA Japan, Inc.) and water (tap water) were made freely available. The test substance was forcefully administered to the KK-Ay mice using a glass syringe and oral probe. The dose of each test substance was 10 mg/kg. Blood was sampled from the ocular fundus, immediately prior to and at 4 hours and 7 hours after the administration (for tormentic acid, immediately prior to and at 4 hours after the administration). The blood glucose was measured with a Glucose CII Test Wako (Wako Pure Chemical Industries Co., Ltd.).
The test substances used for this example were: corosolic acid (isolated from banaba leaves), maslinic acid (isolated from banaba leaves), asiatic acid (purchased from LKT Laboratories), 2α,19α-dihydroxy-3-oxo-urs-12-en-28-oic acid (isolated from loquat callus), ursolic acid (purchased from LKT Laboratories), oleanolic acid (purchased from LKT Laboratories), α-amyrin (purchased from LKT Laboratories), β-amyrin (purchased from LKT Laboratories), hederagenin (purchased from LKT Laboratories), 18β-glycyrrhetinic acid (purchased from Wako Pure Chemical Industries Co., Ltd.), sapindoside B (isolated from soapberry), and tormentic acid (isolated from loquat callus).
The blood glucose levels were measured using four KK-Ay mice for each test substance. The measurement results were recorded as mean±SE. Significant change in the blood glucose level was judged by Student's t-test with the significance level (p value) as 0.05.

[1] = test system: borderline diabetic patients; test: glucose tolerance test after administration of corosolic acid or placebo, blood insulin level (IRI) assayed; type: in vivo, human; conditions: 31 borderline diabetic patients, 10 mg oral, 75 g oral glucose load
Procedure: The following test was conducted to confirm that corosolic acid has an early insulin secretion stimulating effect. A glucose tolerance test was performed after administration of corosolic acid or a placebo, in a double-blind crossover manner, and the blood insulin level (IRI: immunoreactive insulin) was assayed. Significant change in the IRI was judged by Student's t-test with the significance level (p value) as 0.05.
First, 31 borderline diabetic patients as test subjects were orally administered corosolic acid (10 mg, ≧99% purity) or a placebo, and blood was sampled immediately thereafter with the blood insulin level at that time designated as the value at 0 minutes. Immediately after blood sampling, 75 g of glucose was orally administered to each test subject to start a glucose tolerance test, and blood was sampled after periods of 30 minutes, 60 minutes, 90 minutes, 120 minutes and 180 minutes for measurement of the blood insulin level.
FIG. 1 is a graph showing changes in the blood insulin levels during the glucose tolerance test. The horizontal axis represents time (minutes) after start of the glucose tolerance test, and the vertical axis represents IRI (μU/mL). In the graph, (a) is a case with administration of corosolic acid and (b) is a case with administration of the placebo.

## C[C@@H]1CC[C@]2(C(=O)O)CC[C@]3(C)C(=CC[C@@H]4[C@@]5(C)C[C@@H](O)C(=O)C(C)(C)[C@@H]5CC[C@]43C)[C@@H]2[C@]1(C)O [2α,19α-dihydroxy-3-oxo-urs-12-en-28-oic acid]
KK-Ay mice
  hypoglycemic effect (change in blood glucose level): significant hypoglycemic effects

## CC1(C)[C@@H](O)CC[C@]2(C)[C@H]3C(=O)C=C4[C@@H]5C[C@@](C)(C(=O)O)CC[C@]5(C)CC[C@@]4(C)[C@]3(C)CC[C@@H]12 [18β-glycyrrhetinic acid]
KK-Ay mice
  hypoglycemic effect (change in blood glucose level): no definite hypoglycemic effect

## CC1(C)CC[C@]2(C(=O)O)CC[C@]3(C)C(=CC[C@@H]4[C@@]5(C)C[C@@H](O)[C@H](O)C(C)(C)[C@@H]5CC[C@]43C)[C@@H]2C1 [Maslinic acid, maslinic acid]
KK-Ay mice
  hypoglycemic effect (change in blood glucose level): did not exhibit a significant hypoglycemic effect but did exhibit a tendency toward reducing blood glucose level

## C[C@H]1[C@H](C)CC[C@]2(C(=O)O)CC[C@]3(C)C(=CC[C@@H]4[C@@]5(C)C[C@@H](O)[C@H](O)[C@@](C)(CO)[C@@H]5CC[C@]43C)[C@H]12 [asiatic acid]
KK-Ay mice
  hypoglycemic effect (change in blood glucose level): significant hypoglycemic effects

## C[C@H]1[C@H](C)CC[C@]2(C(=O)O)CC[C@]3(C)C(=CC[C@@H]4[C@@]5(C)C[C@@H](O)[C@H](O)C(C)(C)[C@@H]5CC[C@]43C)[C@H]12 [corosolic acid]
[1]; 30 minutes after start of glucose tolerance test
  blood insulin level (IRI) compared to placebo: significant increase in blood insulin level
[1]; 120 minutes after start of glucose tolerance test
  blood insulin level (IRI) compared to placebo: significant drop in blood insulin level
KK-Ay mice
  hypoglycemic effect (change in blood glucose level): significant hypoglycemic effects

## CC1(C)CC[C@]2(C(=O)O)CC[C@]3(C)C(=CC[C@@H]4[C@@]5(C)CC[C@H](O)[C@@](C)(CO)[C@@H]5CC[C@]43C)[C@@H]2C1 [hederagenin]
KK-Ay mice
  hypoglycemic effect (change in blood glucose level): no definite hypoglycemic effect

## CC1(C)CC[C@]2(C(=O)O)CC[C@]3(C)C(=CC[C@@H]4[C@@]5(C)CC[C@H](O)C(C)(C)[C@@H]5CC[C@]43C)[C@@H]2C1 [oleanolic acid]
KK-Ay mice
  hypoglycemic effect (change in blood glucose level): no definite hypoglycemic effect

## C[C@@H]1O[C@@H](O[C@H]2[C@H](O[C@H]3CC[C@@]4(C)[C@@H](CC[C@]5(C)[C@@H]4CC=C4[C@@H]6CC(C)(C)CC[C@]6(C(=O)O)CC[C@]45C)[C@]3(C)CO)OC[C@H](O)[C@@H]2O)[C@H](O)[C@H](O[C@@H]2OC[C@@H](O)[C@H](O)[C@H]2O)[C@H]1O [sapindoside B]
KK-Ay mice
  hypoglycemic effect (change in blood glucose level): no definite hypoglycemic effect

## C[C@@H]1CC[C@]2(C(=O)O)CC[C@]3(C)C(=CC[C@@H]4[C@@]5(C)C[C@@H](O)[C@H](O)C(C)(C)[C@@H]5CC[C@]43C)[C@@H]2[C@]1(C)O [tormentic acid]
KK-Ay mice
  hypoglycemic effect (change in blood glucose level): significant hypoglycemic effects

## C[C@H]1[C@H](C)CC[C@]2(C(=O)O)CC[C@]3(C)C(=CC[C@@H]4[C@@]5(C)CC[C@H](O)C(C)(C)[C@@H]5CC[C@]43C)[C@H]12 [ursolic acid]
KK-Ay mice
  hypoglycemic effect (change in blood glucose level): no definite hypoglycemic effect

## C[C@H]1[C@H](C)CC[C@]2(C)CC[C@]3(C)C(=CC[C@@H]4[C@@]5(C)CC[C@H](O)C(C)(C)[C@@H]5CC[C@]43C)[C@H]12 [α-amyrin]
KK-Ay mice
  hypoglycemic effect (change in blood glucose level): no definite hypoglycemic effect

## CC1(C)CC[C@]2(C)CC[C@]3(C)C(=CC[C@@H]4[C@@]5(C)CC[C@H](O)C(C)(C)[C@@H]5CC[C@]43C)[C@@H]2C1 [β-amyrin]
KK-Ay mice
  hypoglycemic effect (change in blood glucose level): no definite hypoglycemic effect
